Experimental data from patent US12275731B2, “Azaindole inhibitors of wild-type and mutant forms of LRRK2” (DANA-FARBER CANCER INSTITUTE, INC., priority 2018, dated 2025).

Assays:
Experiment in all cases: KinomeScan profiling
Assay type in all cases: binding
[1] = biological target: T1, RSK3(Kin.Dom.2-C-terminal) (Homo sapiens, UniProt Q15349); details: read-out: % control
T1 construct: RSK3(Kin.Dom.2-C-terminal)
In short: (§1)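 Selectivity was assessed by binding competition at 1 μM against 468 kinases. Values below 35% of control define an interaction.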

CDKL2 = biological target: T2, CDKL2 (Homo sapiens, UniProt Q92772); details: CDKL2, 1 μM; read-out: % control
T2 sequence (Q92772 1-493): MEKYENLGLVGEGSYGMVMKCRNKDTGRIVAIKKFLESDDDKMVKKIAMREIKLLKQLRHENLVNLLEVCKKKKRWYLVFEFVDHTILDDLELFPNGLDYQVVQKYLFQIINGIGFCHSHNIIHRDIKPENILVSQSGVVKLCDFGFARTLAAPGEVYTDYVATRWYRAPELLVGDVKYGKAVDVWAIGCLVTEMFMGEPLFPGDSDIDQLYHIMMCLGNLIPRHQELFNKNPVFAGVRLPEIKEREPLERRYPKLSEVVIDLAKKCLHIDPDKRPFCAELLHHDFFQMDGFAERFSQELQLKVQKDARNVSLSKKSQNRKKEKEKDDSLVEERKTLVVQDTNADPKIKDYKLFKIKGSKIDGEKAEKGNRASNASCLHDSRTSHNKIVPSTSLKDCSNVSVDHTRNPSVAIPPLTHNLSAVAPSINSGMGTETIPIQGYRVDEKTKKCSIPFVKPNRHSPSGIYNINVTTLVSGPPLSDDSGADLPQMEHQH
In short: as §1

PRKD3 = biological target: T3, PRKD3 (Homo sapiens, UniProt O94806); details: PRKD3, 1 μM; read-out: % control
T3 sequence (O94806 1-890): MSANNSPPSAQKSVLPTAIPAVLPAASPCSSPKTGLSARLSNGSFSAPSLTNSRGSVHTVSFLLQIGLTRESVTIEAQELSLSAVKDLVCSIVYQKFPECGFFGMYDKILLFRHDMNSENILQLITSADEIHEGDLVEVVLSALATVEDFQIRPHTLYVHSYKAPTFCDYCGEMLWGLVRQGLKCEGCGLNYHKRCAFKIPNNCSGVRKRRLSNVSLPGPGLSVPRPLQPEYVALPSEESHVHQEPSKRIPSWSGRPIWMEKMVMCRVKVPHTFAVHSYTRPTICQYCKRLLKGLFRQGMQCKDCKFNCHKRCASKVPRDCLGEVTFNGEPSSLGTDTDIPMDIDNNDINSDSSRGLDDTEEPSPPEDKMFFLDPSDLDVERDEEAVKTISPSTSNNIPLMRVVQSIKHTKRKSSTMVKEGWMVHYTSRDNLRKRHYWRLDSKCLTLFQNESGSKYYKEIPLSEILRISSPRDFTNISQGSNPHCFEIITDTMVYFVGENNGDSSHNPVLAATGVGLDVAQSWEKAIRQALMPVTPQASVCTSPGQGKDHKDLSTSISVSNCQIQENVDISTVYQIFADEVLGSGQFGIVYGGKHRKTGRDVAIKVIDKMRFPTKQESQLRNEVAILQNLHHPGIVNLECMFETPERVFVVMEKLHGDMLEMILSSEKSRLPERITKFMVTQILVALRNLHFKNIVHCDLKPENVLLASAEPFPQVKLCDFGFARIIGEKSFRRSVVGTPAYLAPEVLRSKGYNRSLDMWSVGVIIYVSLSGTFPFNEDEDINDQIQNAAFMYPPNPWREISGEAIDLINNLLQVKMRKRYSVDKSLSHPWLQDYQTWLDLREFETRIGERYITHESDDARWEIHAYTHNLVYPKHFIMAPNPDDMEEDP
In short: as §1

EPHB1 = biological target: T4, EPHB1 (Homo sapiens, UniProt P54762); details: EPHB1, 1 μM; read-out: % control
T4 sequence (P54762 18-984): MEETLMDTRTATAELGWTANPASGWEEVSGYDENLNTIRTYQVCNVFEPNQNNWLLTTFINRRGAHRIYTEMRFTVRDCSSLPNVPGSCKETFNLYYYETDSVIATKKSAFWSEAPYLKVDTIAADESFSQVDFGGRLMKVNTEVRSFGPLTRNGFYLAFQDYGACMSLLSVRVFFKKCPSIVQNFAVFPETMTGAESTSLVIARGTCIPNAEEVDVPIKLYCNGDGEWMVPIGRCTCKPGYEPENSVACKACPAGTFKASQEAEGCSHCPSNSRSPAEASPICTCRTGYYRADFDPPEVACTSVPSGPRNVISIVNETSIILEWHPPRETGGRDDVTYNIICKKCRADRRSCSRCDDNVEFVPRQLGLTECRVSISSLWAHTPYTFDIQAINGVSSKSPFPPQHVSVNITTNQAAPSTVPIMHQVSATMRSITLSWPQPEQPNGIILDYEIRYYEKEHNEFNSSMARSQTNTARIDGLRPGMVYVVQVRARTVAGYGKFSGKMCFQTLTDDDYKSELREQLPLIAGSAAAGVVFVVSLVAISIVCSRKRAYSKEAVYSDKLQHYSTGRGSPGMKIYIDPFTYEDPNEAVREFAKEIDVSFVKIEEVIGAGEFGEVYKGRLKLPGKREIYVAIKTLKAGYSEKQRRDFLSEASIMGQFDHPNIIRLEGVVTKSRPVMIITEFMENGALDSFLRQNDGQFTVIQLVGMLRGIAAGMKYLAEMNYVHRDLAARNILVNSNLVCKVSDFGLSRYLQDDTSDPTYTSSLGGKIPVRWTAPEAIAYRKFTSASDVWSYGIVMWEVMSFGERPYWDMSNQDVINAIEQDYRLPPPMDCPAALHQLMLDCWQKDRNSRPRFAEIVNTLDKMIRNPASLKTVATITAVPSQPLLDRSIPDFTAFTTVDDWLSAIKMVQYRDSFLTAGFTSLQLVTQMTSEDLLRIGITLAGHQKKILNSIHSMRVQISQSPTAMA
In short: as §1

T1 sequence (Q15349 415-672 limits assumed): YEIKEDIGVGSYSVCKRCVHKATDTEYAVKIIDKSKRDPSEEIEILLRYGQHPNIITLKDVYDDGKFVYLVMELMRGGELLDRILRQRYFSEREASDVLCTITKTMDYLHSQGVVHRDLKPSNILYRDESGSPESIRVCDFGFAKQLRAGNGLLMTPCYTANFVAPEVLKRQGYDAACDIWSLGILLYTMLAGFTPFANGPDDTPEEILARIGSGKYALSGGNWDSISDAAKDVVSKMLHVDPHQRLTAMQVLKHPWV

Row | Structure (SMILES) | remaining binding at 1 µM [1] [%] | remaining binding at 1 µM (CDKL2) [%] | remaining binding at 1 µM (PRKD3) [%] | remaining binding at 1 µM (EPHB1) [%]
1 | O=C(c1ccc(-c2cnc3[nH]cc(Cl)c3c2NC2CCCC2)cc1)N1CCC(N2CCOCC2)CC1 [Compound 101, (4-(3-chloro-4-(cyclopentylamino)-1H-pyrrolo[2,3-b]pyridin-5-yl)phenyl)(4-morpholinopiperidin-1-yl)methanone] | 77 | 100 | 35 | 95
2 | CNc1c(-c2cnn([C@H]3CCN(C(C)=O)C[C@@H]3F)c2)cnc2[nH]cc(Cl)c12 [Compound 77, 1-((3S,4S)-4-(4-(3-chloro-4-(methylamino)-1H-pyrrolo[2,3-b]pyridin-5-yl)-1H-pyrazol-1-yl)-3-fluoropiperidin-1-yl)ethan-1-one] | 100 | 95 | 56 | 93
3 | CNc1c(-c2ccc(C(=O)N3CCC(N4CCOCC4)CC3)cc2)cnc2[nH]cc(Cl)c12 [Compound 96, (4-(3-chloro-4-(methylamino)-1H-pyrrolo[2,3-b]pyridin-5-yl)phenyl)(4-morpholinopiperidin-1-yl)methanone] | 78 | 97 | 13 | 100
